Test results published in PMC8078842 (PLoS Neglected Tropical Diseases, 2021).

Key:
Melatonin, Non-selective = test: CNS side effect panel, [^125I]-2-Iodomelatonin; assay type: binding; details: pentamidine 1.0E^-5 M
[1] = target: cloned hKir2.1 potassium channels (Homo sapiens, UniProt P63252); test: cell-based
Opioid, Non-selective = test: CNS side effect panel, [^3H]Naloxone; assay type: binding
Imidazoline2 receptor = details: 3H-idazoxan binding; cited from earlier work

cloned hKir2.1 potassium channels, sequence (P63252 whole entry): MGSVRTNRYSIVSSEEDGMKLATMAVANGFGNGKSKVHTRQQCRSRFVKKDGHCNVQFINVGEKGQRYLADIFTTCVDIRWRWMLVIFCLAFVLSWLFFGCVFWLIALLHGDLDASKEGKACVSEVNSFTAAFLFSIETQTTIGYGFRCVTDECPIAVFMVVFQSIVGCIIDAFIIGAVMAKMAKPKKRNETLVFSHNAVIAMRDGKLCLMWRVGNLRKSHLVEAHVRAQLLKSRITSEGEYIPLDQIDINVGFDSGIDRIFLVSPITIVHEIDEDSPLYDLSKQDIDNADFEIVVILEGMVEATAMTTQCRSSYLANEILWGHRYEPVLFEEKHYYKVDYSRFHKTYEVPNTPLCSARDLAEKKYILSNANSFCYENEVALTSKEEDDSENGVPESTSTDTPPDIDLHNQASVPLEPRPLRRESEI

N=C(N)c1ccc(OCCCCCOc2ccc(C(=N)N)cc2)cc1 [Pentamidine, 1,5-bis-4ρ-amidinophenoxypentane]
Percent Inhibition (Melatonin, Non-selective): 23.45% | IC50 [1]: > 10 µM | Ki (Opioid, Non-selective; Opioid, concentration-response): 1.41 µM | Percent Inhibition (Opioid, Non-selective; pentamidine 1.0E^-5 M): 76.00% | Affinity (Imidazoline2 receptor): 0.014 µM
